These results are taken from the supplement of paper PMC10307832.

What all share (test): relative viability (nuclei count vs DMSO), 5 days (fraction); higher = more cells survive
Compound in experiment [1]: Cc1ccc(C(=O)Nc2ccc(CN3CCN(C)CC3)c(C(F)(F)F)c2)cc1C#Cc1cnc2cccnn12 [Ponatinib] + O=C(CCCCCCC(=O)Nc1ccccc1)NO [Vorinostat] (partner 1 µM)
In a few lines: (§1)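 Relative viability divides the nuclei count in treated wells by that in vehicle wells. Lung cancer cell lines were seeded in 1536-well plates, dosed by pin tool the next day, and fixed and stained after 5 days in one step with final 0.05% Triton X-100, 1% formaldehyde and 1 ug/ml Hoechst. Dosing was a single drug or a fixed anchor-drug dose plus five library-drug doses (not always all listed) in √10 steps, and values are medians of duplicate plates imaged at 4×.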

Compound in experiment [2]: Cc1ccc(Nc2nccc(N(C)c3ccc4c(C)n(C)nc4c3)n2)cc1S(N)(=O)=O [Pazopanib] + C[C@@H](Oc1cc(-c2cnn(C3CCNCC3)c2)cnc1N)c1c(Cl)ccc(F)c1Cl [Crizotinib] (partner 1 µM)
In a few lines:
as §1

Compound in experiment [3]: Cc1ccc(C(=O)Nc2ccc(CN3CCN(C)CC3)c(C(F)(F)F)c2)cc1C#Cc1cnc2cccnn12 [Ponatinib] + NC(=O)Nc1cc(-c2cccc(F)c2)sc1C(=O)N[C@H]1CCCNC1 [AZD7762] (partner 0.2 µM)
In a few lines:
as §1

Compound in experiment [4]: Cc1ccc(Nc2nccc(N(C)c3ccc4c(C)n(C)nc4c3)n2)cc1S(N)(=O)=O [Pazopanib] + COc1cc2c(Oc3ccc(NC(=O)C4(C(=O)Nc5ccc(F)cc5)CC4)cc3F)ccnc2cc1OCCCN1CCOCC1 [Foretinib] (partner 0.25 µM)
In a few lines: as §1

NCI-H2405: the relative viability in experiment [1] (first compound 0.002 µM) is 0.896; in experiment [1] (first compound 0.006325 µM) it was 0.906; in experiment [1] (first compound 0.06325 µM) it was 1.01; in experiment [1] (first compound 0.2 µM) it was 0.822; in experiment [2] (first compound 0.01 µM), 0.825; in experiment [2] (first compound 0.03162 µM), 0.863. Moreover, the relative viability is 0.842 in experiment [2] (first compound 0.1 µM); 0.915 in experiment [2] (first compound 0.3162 µM); 0.713 in experiment [2] (first compound 1 µM); 0.622 in experiment [3] (first compound 0.002 µM); 0.73 in experiment [3] (first compound 0.006325 µM); 0.705 in experiment [3] (first compound 0.06325 µM). Also, the relative viability in experiment [3] (first compound 0.2 µM) stood at 0.542; in experiment [4] (first compound 0.01 µM) it was 0.997; in experiment [4] (first compound 0.03162 µM), 1.13; in experiment [4] (first compound 0.1 µM), 1.11; in experiment [4] (first compound 0.3162 µM), 1.11; in experiment [4] (first compound 1 µM), 1.08.

Take NCI-H3122: the relative viability was 0.936 in experiment [1] (first compound 0.002 µM); 1.07 in experiment [1] (first compound 0.006325 µM); 0.994 in experiment [1] (first compound 0.06325 µM); 1.05 in experiment [1] (first compound 0.2 µM); 0.263 in experiment [2] (first compound 0.01 µM); 0.247 in experiment [2] (first compound 0.03162 µM). Besides, the relative viability turned out to be 0.273 in experiment [2] (first compound 0.1 µM); 0.278 in experiment [2] (first compound 0.3162 µM); 0.348 in experiment [2] (first compound 1 µM); 0.846 in experiment [3] (first compound 0.002 µM); 0.903 in experiment [3] (first compound 0.006325 µM); 1.05 in experiment [3] (first compound 0.06325 µM). Moreover, the relative viability in experiment [3] (first compound 0.2 µM) was 0.924; in experiment [4] (first compound 0.01 µM), 0.999; in experiment [4] (first compound 0.03162 µM) it was 0.932; in experiment [4] (first compound 0.1 µM) it was 1.01; in experiment [4] (first compound 0.3162 µM) it was 0.992; in experiment [4] (first compound 1 µM), 0.996.

As for PC-3 [JPC-3], the relative viability in experiment [1] (first compound 0.006325 µM) amounted to 0.703; in experiment [1] (first compound 0.06325 µM), 0.868; in experiment [1] (first compound 0.2 µM), 0.898; in experiment [2] (first compound 0.01 µM) it was 1.03; in experiment [2] (first compound 0.03162 µM), 1.01; in experiment [2] (first compound 0.1 µM) it was 1.02. Further, the relative viability in experiment [2] (first compound 0.3162 µM) was 0.925; in experiment [2] (first compound 1 µM), 0.936; in experiment [3] (first compound 0.006325 µM), 0.901; in experiment [3] (first compound 0.06325 µM), 1; in experiment [3] (first compound 0.2 µM), 0.873; in experiment [4] (first compound 0.01 µM), 1.05. Moreover, the relative viability amounted to 1.01 in experiment [4] (first compound 0.03162 µM), 1.12 in experiment [4] (first compound 0.1 µM), 1.06 in experiment [4] (first compound 0.3162 µM) and 0.995 in experiment [4] (first compound 1 µM).

On to PC-14, for which the relative viability in experiment [1] (first compound 0.002 µM) stood at 0.68; in experiment [1] (first compound 0.006325 µM), 0.668; in experiment [1] (first compound 0.06325 µM) it was 0.9; in experiment [1] (first compound 0.2 µM), 0.647; in experiment [2] (first compound 0.01 µM), 0.95; in experiment [2] (first compound 0.03162 µM) it was 0.893. In addition, the relative viability came to 0.968 in experiment [2] (first compound 0.1 µM); 0.891 in experiment [2] (first compound 0.3162 µM); 0.935 in experiment [2] (first compound 1 µM); 0.218 in experiment [3] (first compound 0.002 µM); 0.305 in experiment [3] (first compound 0.006325 µM); 0.396 in experiment [3] (first compound 0.06325 µM). Also, the relative viability in experiment [3] (first compound 0.2 µM) worked out at 0.458; in experiment [4] (first compound 0.01 µM), 0.962; in experiment [4] (first compound 0.03162 µM) it was 0.972; in experiment [4] (first compound 0.1 µM) it was 1.11; in experiment [4] (first compound 0.3162 µM), 1.03; in experiment [4] (first compound 1 µM) it was 1.

Regarding RERF-LC-KJ, the relative viability was 0.601 in experiment [1] (first compound 0.002 µM); 0.767 in experiment [1] (first compound 0.006325 µM); 0.881 in experiment [1] (first compound 0.06325 µM); 0.635 in experiment [1] (first compound 0.2 µM); 0.794 in experiment [2] (first compound 0.01 µM); 0.773 in experiment [2] (first compound 0.03162 µM). Moreover, the relative viability in experiment [2] (first compound 0.1 µM) came to 0.812; in experiment [2] (first compound 0.3162 µM), 0.775; in experiment [2] (first compound 1 µM) it was 0.789; in experiment [3] (first compound 0.002 µM) it was 0.838; in experiment [3] (first compound 0.006325 µM) it was 0.951; in experiment [3] (first compound 0.06325 µM), 1.13. In addition, the relative viability in experiment [3] (first compound 0.2 µM) amounted to 0.961; in experiment [4] (first compound 0.01 µM) it was 0.844; in experiment [4] (first compound 0.03162 µM), 0.859; in experiment [4] (first compound 0.1 µM), 0.857; in experiment [4] (first compound 0.3162 µM), 0.86; in experiment [4] (first compound 1 µM), 0.792.
